Measurements published in ChEMBL document CHEMBL1201862, “PubChem BioAssay data set” (2004).
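Cultured in 96-well plates, cells were exposed to test compound for 48 hours across five concentrations. GI50 = concentration required for 50% inhibition of growth.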 The source made the active and inactive calls. Rule as the data show it: active = GI50 up to about 1.1 µM and inactive = higher.

Columns and labels:
Test in all cases: NCI-60 cell line screen, 48 h
DLD-1 = system: DLD-1
DMS-114 = system: DMS-114
DMS-273 = system: DMS-273
HOP-18 = system: HOP-18
KM-20L2 = system: KM-20L2
M19-MEL = system: M19-MEL
RXF 631 = system: RXF 631
SNB-78 = system: SNB-78
XF498 = system: XF498

Measured: GI50

CCOP(=O)(OCC)C(C(=O)OC)C(=O)C(=O)Nc1c(C)cc(Br)cc1C (centres undefined)
inactive: DLD-1 > 100 µM | DMS-114 > 100 µM | DMS-273 > 100 µM | HOP-18 49.7 µM | KM-20L2 > 100 µM | M19-MEL > 100 µM | RXF 631 > 100 µM | SNB-78 > 100 µM | XF498 > 100 µM
